Molecular target: Cyclin-dependent kinase 7 (Homo sapiens, UniProt P50613)
Experiment: off-target CDK7 activity blockade – biochemical, 57K library addition, counter-screen for PKD inhibitor project, dose response (AID 1380)

Cyclin-dependent kinase 7, sequence (P50613 whole entry): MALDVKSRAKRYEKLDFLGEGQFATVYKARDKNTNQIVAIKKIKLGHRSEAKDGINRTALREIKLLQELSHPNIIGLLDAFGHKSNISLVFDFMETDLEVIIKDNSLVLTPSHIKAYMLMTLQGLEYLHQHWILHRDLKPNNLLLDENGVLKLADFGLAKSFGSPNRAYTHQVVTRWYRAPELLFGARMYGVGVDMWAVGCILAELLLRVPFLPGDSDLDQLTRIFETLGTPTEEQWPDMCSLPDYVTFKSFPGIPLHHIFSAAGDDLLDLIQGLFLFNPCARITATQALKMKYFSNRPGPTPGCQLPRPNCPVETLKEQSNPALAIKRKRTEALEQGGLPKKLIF

Compound: O=C1CSCN1c1cc(Cl)ccc1Cl [3-(2,5-dichlorophenyl)-1,3-thiazolan-4-one]
- IC50: > 100 µM

Compound: CCCc1cc(=O)[nH]c(SCCCCN2C(=O)c3ccccc3C2=O)n1 [2-[4-[(4-oxidanylidene-6-propyl-1H-pyrimidin-2-yl)sulfanyl]butyl]isoindole-1,3-dione]
- IC50: > 100 µM

Compound: Cc1c(C#N)c(N)nc(Cl)c1C#N [2-amino-6-chloro-4-methyl-3,5-pyridinedicarbonitrile]
- IC50: > 100 µM

Compound: Cn1cccc1C(=O)NC(=O)COC(=O)c1cc(S(=O)(=O)N2CCCCC2)ccc1Cl [[2-[(1-methylpyrrol-2-yl)carbonylamino]-2-oxidanylidene-ethyl] 2-chloranyl-5-piperidin-1-ylsulfonyl-benzoate]
- IC50: > 100 µM

Compound: O=C(CSc1ccncc1)Nc1ccc2ccccc2c1 [N-naphthalen-2-yl-2-pyridin-4-ylsulfanylacetamide]
- IC50: > 100 µM

Compound: O=C(Nc1ccccc1C(=O)N1CCCC1)C1COc2ccccc2O1 (stereo not drawn) [SMR000287780]
- IC50: > 100 µM

Compound: CC1Cc2ccccc2N1c1ncnc(N)c1[N+](=O)[O-] (stereo not drawn) [6-(2-methyl-2,3-dihydro-1H-indol-1-yl)-5-nitro-4-pyrimidinamine]
- IC50: 8.22 µM

Compound: CCOC(=O)c1sc(=NC(=O)CCS(=O)(=O)c2ccccc2)n(C)c1C [2-[3-(benzenesulfonyl)-1-oxopropyl]imino-3,4-dimethyl-5-thiazolecarboxylic acid ethyl ester]
- IC50: > 100 µM

Compound: COC(=O)c1c(NC(=O)C2C3CCC(C3)C2C(=O)O)sc2c1CCCCC2 (stereo not drawn) [SMR000298221]
- IC50: > 100 µM

Compound: O=C(CSc1ccc2nnc(-c3cccnc3)n2n1)c1ccccc1 [1-phenyl-2-[[3-(3-pyridinyl)-[1,2,4]triazolo[4,3-b]pyridazin-6-yl]thio]ethanone]
- IC50: > 100 µM

Compound: COc1ccc(Cn2c(=O)[nH]c3cc(C(=O)NC4CCCC4)ccc3c2=O)cc1 [MLS000730065]
- IC50: > 100 µM

Compound: CSc1ccccc1C(=O)NCc1ccc(F)cc1
- IC50: > 100 µM

Compound: CC(N=Nc1ncc(Cl)cc1Cl)c1ccccn1 (stereo not drawn) [3,5-dichloro-N-(1-pyridin-2-ylethylideneamino)pyridin-2-amine]
- IC50: > 100 µM

Compound: O=C(O)c1cc(C(=O)C2CCCCC2)c[nH]1 [4-(cyclohexylcarbonyl)-1H-pyrrole-2-carboxylic acid]
- IC50: > 100 µM

Compound: O=[N+]([O-])c1ccc(Nc2c3ccccc3nc3ccccc23)cc1 [MLS000723809]
- IC50: > 100 µM

Compound: Cc1cc(NC(=O)CCC(=O)N(Cc2ccco2)C(C(=O)NCC2CCCO2)c2ccncc2)no1 (stereo not drawn) [N'-(furan-2-ylmethyl)-N-(5-methyl-1,2-oxazol-3-yl)-N'-[2-oxidanylidene-2-(oxolan-2-ylmethylamino)-1-pyridin-4-yl-ethyl]butanediamide]
- IC50: > 100 µM

Compound: COc1ccc(CNC(=O)C2Cc3ccccc3CN2C(=O)c2ccco2)cc1 (stereo not drawn) [SMR000343177]
- IC50: > 100 µM

Compound: O=C(NNC1=Nc2cccc3cccc1c23)c1ccc(Br)cc1 [SMR000260645]
- IC50: > 100 µM
